According to article PMC6272295, “In Vitro Neuroprotective Activities of Compounds from Angelica shikokiana Makino” (Molecules, 2015):
Read-outs that look alike come from different tables or passages of the source.

Legend:
[1] = Scavenging of hydroxyl radical, 2-deoxyribose degradation assay; details: for % Inhibition of deoxyribose degradation, Non Site-Specific: at 300 µM (maximum solubility in phosphate buffer)
Description: The inhibitory effect of bioactive compounds on deoxyribose degradation was determined by measuring the competition between deoxyribose and bioactive compounds for the hydroxyl radicals (^.OH) generated from the Fe^3+/ascorbate/EDTA/H2O2 system (referred to non-site-specific assay; the major activity measured is ^.OH scavenging) or an Fe^3+/ascorbate/H2O2 system (referred to as a site-specific assay; major activity measured is metal chelation). Both assays depend on the formation of a highly reactive hydroxyl radical, OH, by the interaction of iron ions with H2O2 through Fenton’s reaction. […] This assay was performed as previously described. Different concentrations of tested compounds were dissolved in 400 µL phosphate buffer (0.2 M, pH 7.4). Then, 50 µL of deoxyribose (60 mM), 50 µL of Na2EDTA (2 mM), 50 µL of FeCl3 (3.2 mM), 50 µL of H2O2 (60 mM) and 50 µL of ascorbic acid (2 mM) were added, and the total volume of the reaction mixture was adjusted to 1 mL with buffer. After water-bath incubation at 50 °C for 25 min, the reaction was terminated by 250 µL of trichloroacetic acid (10%, w/w). […] For site-specific hydroxyl-radical-scavenging activity, the reaction mixture was similar to the above method, except that EDTA was replaced by an equivalent volume of buffer.
IC50 values of isolated compounds in AChEI and scavenging of hydroxyl radical assays were calculated using Probit Analysis (SPSS Version 16.0 for Windows, SPSS Inc., Chicago, IL, USA) for five different concentrations in three independent experiments. Cell viability was expressed as a percentage of MTT reduction, assuming that the viability of cells treated with 1% DMSO as a negative control was 100%. […] All values are the mean ± SD of three independent experiments. Data were analyzed for statistical significance using one-way ANOVA, followed by Dunnet’s test as a post-hoc test with GraphPad Prism 5.0 software for Windows (Inc., San Diego, CA, USA).

[2] = target: T1, AChE from Electrophorus electricus (Electrophorus electricus, UniProt O42275); assay: biochemical; details: Ellman's method; read-out: IC50 in the AChEI assay
T1 construct: purchased Sigma (St. Louis, MO, USA)
Description: AChEI activity was measured using Ellman’s method. AChE hydrolyzes the substrate ACTI into acetate and thiocholine. In a neutral and alkaline medium; thiocholine reacts with DTNB to give yellow colored 2-nitro-5-thiobenzoate, which can be detected spectrophotometrically at 405 nm. Briefly, in a 96-well plate, 25 µL of 15 mM ACTI, 125 µL of 3 mM DTNB in buffer B (50 mM Tris HCl, pH = 8, 0.1 M NaCl, 0.02 M MgCl2·6H2O), 50 µL of buffer A (50 mM Tris-HCl, PH 8, 0.1% BSA) and 25 µL of tested sample (dissolved in 25% DMSO) were mixed, and the absorbance was measured using a microplate reader (Biotek, Winooski, VT, USA) at 405 nm every 16 s ten times. Then, 25 µL of AChE (0.25 U/mL in buffer A) was added and the absorbance was measured ten times every 16 s. A solution of 25% DMSO was used as a negative control. Absorbance was plotted against time and enzyme activity was calculated from the slope of the line so obtained and expressed as a percentage compared to an assay using a buffer without any inhibitor. Fractions were tested at 400 µg/mL. To avoid any increase in absorbance due to the color of the compounds or spontaneous hydrolysis of the substrate, the absorbance before addition of the enzyme was subtracted from the absorbance after adding the enzyme.
IC50 values of isolated compounds in AChEI and scavenging of hydroxyl radical assays were calculated using Probit Analysis (SPSS Version 16.0 for Windows, SPSS Inc., Chicago, IL, USA) for five different concentrations in three independent experiments. Cell viability was expressed as a percentage of MTT reduction, assuming that the viability of cells treated with 1% DMSO as a negative control was 100%. Figures were built in Microsoft Excel 2010. All values are the mean ± SD of three independent experiments. Data were analyzed for statistical significance using one-way ANOVA, followed by Dunnet’s test as a post-hoc test with GraphPad Prism 5.0 software for Windows (Inc., San Diego, CA, USA).

Aβ25-35 = target: T2, Aβ25-35 (Homo sapiens, UniProt P05067); assay: Thioflavin T assay of Aβ25-35 aggregation; assay type: biochemical; details: for effect on Th-T fluorescence (in words): 25-100 µM; for Decrease of ThT Fluorescence: summary Table 4; for decrease of Th-T fluorescence intensity: Aβ25-35 25 µM; for Decrease of ThT Fluorescence: key: +: Weak activity; ++: Strong activity
T2 construct: Aβ25-35 (25 µM) freshly prepared in PBS; purchased Sigma (St. Louis, MO, USA)
Description: Thioflavin T (ThT), abenzothiazole salt, is used to quantify misfolded protein aggregates and amyloid peptides. ThT is a non-fluorescent dye which, when it binds to amyloid rich aggregates, produces a fluorescent signal proportional to the quantity of amyloid aggregation. Aβ25-35 (25 µM) freshly prepared in PBS (50 mM, pH = 7.4) was incubated at 37 °C with or without different concentrations (100, 50, 25 µM) of isolated compounds at 37 °C and shaken at 300 rpm for 3 h. One hundred µL of each incubated sample was transferred to a 96-well plate, and five µM ThT was added. The ThT fluorescence was measured over 180 min at 10-min intervals at emission λ at 485 nm; and excitation λ at 442 nm using FlexStation 3 Microplate Reader (Molecular Devices, LLC, Sunnyvale, CA, USA), and data were managed by SoftMax Pro® 5.4.1 software. The samples were constantly shaken every 60 sec during the incubation. 1% DMSO and different concentrations of ECCG were taken as negative and positive controls, respectively. The area under the curve (AUC) was taken as indicative of fluorescence intensity. Fluorescence of samples and ThT without Aβ25-35 (sample blank) was detected and subtracted from the final AUC to prevent any interference.

neuro-2A cells [3] = assay: Protection against Aβ25-35-induced neurotoxicity (MTT); assay type: cell-based, Mouse; details: for Protection against Aβ25-35: summary Table 4; for Protection against Aβ25-35: key: +: Weak activity; ++: Strong activity
Description: (§1) Neuro-2A cell line was maintained in Eagle’s Minimum Essential medium supplemented with 10% fetal bovine serum, 1% of 100× antibiotic—antimitotic agents (containing penicillin and streptomycin) in a humid atmosphere of 5% (v/v) CO2 and 95% (v/v) air at 37 °C. Neuro-2A cells were plated in 96-well cell culture plates at a density of 3 × 10^4 cells/well for H2O2 and intracellular ROS assays and 2.5 × 10^3 cells/well for the Aβ25-35-assay.
(§2) Cell viability was determined by MTT reduction assay. Briefly, after treatment with isolated compounds, the media was replaced by fresh one after washing the cells with 100 µL PBS and 20 µL of MTT (5 mg/mL) was added to each well. After 4 h incubation at 37 °C, the state of cells was checked under microscope to confirm either cytotoxicity in H2O2 and Aβ25-35 wells or protection in positive controls and isolated compounds ones. The supernatants were aspirated carefully, and 150 µL of DMSO was added to each well to dissolve the dark blue formazan crystals. The absorbance was measured using a microplate reader at 570 nm.
Similarly, the concentration of Aβ25-35 that decreased cell viability to about 50% was determined. […] So, the cells were incubated with different concentrations of the isolated compounds (6.25, 12.5, 25, 50 and 100 µM) and EGCG as a positive control for 3 h followed by Aβ25-35 treatment for 72 h.

neuro-2A cells [4] = assay: Protection against H2O2-induced neurotoxicity (MTT); assay type: cell-based, Mouse
Description: as §1, §2
H2O2 interacts with metals in the medium, producing highly cytotoxic hydroxyl radicals that induce neurotoxicity. So, active compounds are those that can scavenge free radicals and increase the cell viability. This assay was performed as previously described with slight modifications. Briefly, the concentration of H2O2 that decreased cell viability to about 50% was determined as follows: cells were cultured in a 96-well plate and after 24 h were further incubated with different concentrations of H2O2 (50, 100, 150, 200 µM) freshly prepared from 30% stock solution. After 24 h, cell viability was determined using the MTT reduction method. H2O2 at a concentration of 150 µM had the desired cytotoxicity and was used for the next step.

[5] = test system: intracellular ROS in Neuro-2A cells; assay: Scavenging of intracellular reactive oxygen species (Bes-H2O2-AC, DFF fluorescence); assay type: cell-based, Mouse; details: summary Table 4; note: key: +: Weak activity; ++: Strong activity
Description: as §1
This assay was performed as previously described with some modifications. Briefly, Neuro-2A cells were seeded in 96-well Clear Fluorescence Black Plate (number 655090, Greiner Bio-one, Tokyo, Japan). Cells were treated with three different concentrations (25, 50, 100 µM) of the samples. After 2 h incubation, cells were subjected to oxidative stress using 600 µM of H2O2 for 30 min. The nucleus was stained by Hoechst 33342 (Dojindo, Kumamoto, Japan), and the amount of difluorofluorescein (DFF) released from the reaction of H2O2 and BES-H2O2-Ac was taken as an indication of the amount of intracellular H2O2 and ROS. Images of each well were acquired using an IN Cell Analyzer 1000 (GE Healthcare, Buckinghamshire, UK) using 360-nm (Hoechst 33342) and 480-nm (BES-H2O2-Ac) excitation filters and monitored through 460-nm and 535-nm emission filters, respectively. Developer software was used to analyze the images of Hoechst 33342 and BES-H2O2-Ac staining, and the resulting data were then applied to Spotfire Decision Site Client 8.2 software for visualizing the results.

T1 sequence (O42275 24-633): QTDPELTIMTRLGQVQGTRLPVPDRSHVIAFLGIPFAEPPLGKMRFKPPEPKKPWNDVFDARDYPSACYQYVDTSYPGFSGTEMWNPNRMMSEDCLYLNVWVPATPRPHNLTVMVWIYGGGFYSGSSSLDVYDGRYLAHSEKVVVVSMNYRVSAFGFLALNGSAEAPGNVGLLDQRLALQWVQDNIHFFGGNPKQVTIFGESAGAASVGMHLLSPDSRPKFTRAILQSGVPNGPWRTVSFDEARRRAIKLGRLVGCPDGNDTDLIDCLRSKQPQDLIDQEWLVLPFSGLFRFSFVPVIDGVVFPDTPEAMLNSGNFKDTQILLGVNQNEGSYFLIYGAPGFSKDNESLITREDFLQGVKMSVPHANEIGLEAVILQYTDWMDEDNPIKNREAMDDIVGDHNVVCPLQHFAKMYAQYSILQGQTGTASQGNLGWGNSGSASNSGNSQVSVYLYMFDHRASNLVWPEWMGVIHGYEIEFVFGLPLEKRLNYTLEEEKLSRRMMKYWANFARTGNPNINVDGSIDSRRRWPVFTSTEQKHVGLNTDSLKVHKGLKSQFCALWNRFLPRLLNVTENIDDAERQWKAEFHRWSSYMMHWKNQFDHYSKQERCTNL

Row | Molecule | % Inhibition of deoxyribose degradation, Non Site-Specific [1] | IC50 [2] | effect on Th-T fluorescence (in words) (Aβ25-35) | Decrease of ThT Fluorescence (Aβ25-35) | Protection against Aβ25-35 (neuro-2A cells [3]) | neuroprotection against Aβ25-35 (in words) (neuro-2A cells [3]; at the highest concentration (100 µM)) | IC50 ([1]; Fe3+/ascorbate/EDTA/H2O2 system, read-out: IC50 hydroxyl radical scavenging, Non Site-Specific) | IC50 ([1]; Fe3+/ascorbate/H2O2 system without EDTA, read-out: IC50 hydroxyl radical scavenging, Site-Specific) | IC50 ([1]; summary Table 4 (values of the non site-specific assay), read-out: Hydroxyl Radical Scavenging/IC50) | neuroprotection against H2O2-induced neurotoxicity (in words) (neuro-2A cells [4]; 6.25-100 µM, H2O2 150 µM) | Protection against H2O2 (neuro-2A cells [4]; summary Table 4) | Intracellular ROS Scavenging [5] | decrease of Th-T fluorescence intensity (Aβ25-35; 50 µM) | decrease of Th-T fluorescence intensity (Aβ25-35; 100 µM)
1 | CC(=O)O[C@@H]1c2c(ccc3ccc(=O)oc23)OC(C)(C)[C@@H]1OC(=O)[C@@]1(C)O[C@H]1C [Isoepoxypteryxin (3), isoepoxypteryxin] | 6 ± 1.4% | 327 ± 3.4 µM | decreased Th-T fluorescence in a dose-dependent manner | ++ | ++ | – | – | – | – | – | – | – | – | –
2 | C/C=C(/C)C(=O)O[C@@H]1[C@H](OC(C)=O)c2c(ccc3ccc(=O)oc23)OC1(C)C [Isopteryxin (4), isopteryxin] | 10 ± 2.1% | 475.9 ± 1.5 µM | weak activity | + | + | significant neuroprotection (p < 0.05) | – | – | – | – | – | – | – | –
3 | kaempferol-3-O-rutinoside [Kaempferol-3-O-rutinoside (14)] | – | – | decreased Th-T fluorescence in a dose-dependent manner | ++ | ++ | – | 1030 ± 25.7 µM | 1540 ± 20.8 µM | 1030 ± 25.7 µM | significant (p < 0.05) increase in cell viability at 100 µM | + | + | 12% ±3.7% | 33% ± 2.5%
